The NIST ThermoML archive (doi:10.1016/j.fluid.2006.01.014)
Numbers after ± are expanded uncertainties.

conditions: Liquid; Ebulliometric method (Recirculating still)

In order of rising Normal boiling temperature:
1. C[Si](Cl)(Cl)Cl [trichloromethylsilane]  66.4 ± 0.2 °C
2. C[Si](C)(Cl)Cl [dichlorodimethylsilane]  70.31 ± 0.2 °C
3. c1ccccc1 [benzene]  80.01 ± 0.2 °C
